According to the NIST ThermoML archive (doi:10.1016/j.jct.2016.11.009):

Details: Gas, Buoyancy - hydrostatic balance with magnetic suspension - one sinker

N#N [nitrogen]
Details | mass density [kg/m3]
304.03 K, 17990 kPa | 190.64
304.1 K, 16877 kPa | 180.004
304.11 K, 6796 kPa | 75.316
304.11 K, 12948 kPa | 140.851
304.12 K, 5782 kPa | 64.151
304.13 K, 8812 kPa | 97.213
304.14 K, 4379 kPa | 48.633
304.15 K, 2926 kPa | 32.502
304.15 K, 7820 kPa | 86.489
304.15 K, 11901 kPa | 129.994
304.15 K, 15984 kPa | 171.278
304.16 K, 10861 kPa | 119.075
304.16 K, 14927 kPa | 160.84
304.17 K, 13944 kPa | 150.964
304.23 K, 9837 kPa | 108.209
304.55 K, 2607 kPa | 28.885
304.66 K, 3534 kPa | 39.15
304.66 K, 7983 kPa | 88.017
304.69 K, 7136 kPa | 78.822
304.73 K, 16296 kPa | 173.901
304.75 K, 8937 kPa | 98.306
304.75 K, 12245 kPa | 133.207
304.77 K, 4983 kPa | 55.145
304.77 K, 14270 kPa | 153.864
304.78 K, 10988 kPa | 120.097
304.8 K, 3016 kPa | 33.394
304.82 K, 5885 kPa | 65.065
304.83 K, 8012 kPa | 88.26
304.83 K, 10043 kPa | 110.076
304.88 K, 3013 kPa | 33.353
304.88 K, 18305 kPa | 192.939
304.89 K, 6933 kPa | 76.521
305.04 K, 4986 kPa | 55.132
305.17 K, 4987 kPa | 55.12
